Values joined by “and” are separate entries in the source; they are usually repeats but may differ in a detail not shown here. Equal values may be shown once. Inconclusive results and toxic doses are left out. Cut-off read from the data, not from the text of the source: active = T/C of 150% or more; inactive = T/C below 125%.
System: L1210 leukemia ip in BDF1 mice, survival T/C
Assay: NCI In Vivo Anticancer Drug Screen. Data for tumor model L1210 Leukemia (intraperitoneal) in B6D2F1 (BDF1) mice
Details: endpoint: mean survival time, higher = longer survival
Procedure, shortened: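 Value reflects the ratio of survival in compound-treated mice to survival in vehicle-treated controls, with both groups carrying the same transplanted tumor.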

[1] = dose: 100.0 mg/kg/injection, schedule: Q01DX009 (ip), vehicle: Klucel (hydroxypropylcellulose) (HPC)
[2] = dose: 100.0 mg/kg/injection, schedule: Q04DX002 (ip), vehicle: Klucel (hydroxypropylcellulose) (HPC)
[3] = dose: 200.0 mg/kg/injection, schedule: Q01DX009 (ip), vehicle: Klucel (hydroxypropylcellulose) (HPC)
[4] = dose: 200.0 mg/kg/injection, schedule: Q04DX002 (ip), vehicle: Klucel (hydroxypropylcellulose) (HPC)
[5] = dose: 400.0 mg/kg/injection, schedule: Q01DX009 (ip), vehicle: Klucel (hydroxypropylcellulose) (HPC)
[6] = dose: 400.0 mg/kg/injection, schedule: Q04DX002 (ip), vehicle: Klucel (hydroxypropylcellulose) (HPC)
[7] = dose: 100.0 mg/kg/injection, schedule: Q01DX009 (ip), vehicle: saline with Tween-80
[8] = dose: 200.0 mg/kg/injection, schedule: Q01DX009 (ip), vehicle: saline with Tween-80
[9] = dose: 400.0 mg/kg/injection, schedule: Q01DX009 (ip), vehicle: saline with Tween-80
[10] = dose: 100.0 mg/kg/injection, schedule: Q04DX003 (ip), vehicle: saline
[11] = dose: 25.0 mg/kg/injection, schedule: Q01DX009 (ip), vehicle: saline
[12] = dose: 50.0 mg/kg/injection, schedule: Q01DX009 (ip), vehicle: saline

Measured: T/C

CC(=O)SCCNCCNC1CC2CCC1C2 (stereo not drawn)
inactive: dose: 1.25 mg/kg/injection, schedule: Q01DX009 (ip), vehicle: saline 94 % of control | dose: 2.5 mg/kg/injection, schedule: Q01DX009 (ip), vehicle: saline 97 % of control | dose: 5.0 mg/kg/injection, schedule: Q01DX009 (ip), vehicle: saline 100 % of control | dose: 7.2 mg/kg/injection, schedule: Q01DX009 (ip), vehicle: saline 94 % of control | dose: 10.0 mg/kg/injection, schedule: Q01DX001 (ip), vehicle: saline 92 % of control | dose: 10.0 mg/kg/injection, schedule: Q04DX003 (ip), vehicle: saline 99 % of control | dose: 11.0 mg/kg/injection, schedule: Q01DX009 (ip), vehicle: saline 92 % of control | dose: 16.5 mg/kg/injection, schedule: Q01DX009 (ip), vehicle: saline 90 % of control | dose: 20.0 mg/kg/injection, schedule: Q01DX001 (ip), vehicle: saline 90 % of control | dose: 23.0 mg/kg/injection, schedule: Q01DX009 (ip), vehicle: saline 88 % of control | dose: 40.0 mg/kg/injection, schedule: Q01DX001 (ip), vehicle: saline 95 % of control

NC(=O)CCC(NC(=O)OCc1ccccc1)C(=O)O (stereo not drawn)
inactive: [1] 91 % of control | [2] 97 % of control | [3] 112 % of control | [4] 97 % of control | [5] 109 % of control | [6] 105 % of control

Cc1ccc(Br)c([N+](=O)[O-])c1
inactive: dose: 22.2 mg/kg/injection, schedule: Q01DX001 (ip), vehicle: carboxymethylcellulose (CMC) 93 % of control | dose: 33.35 mg/kg/injection, schedule: Q01DX001 (ip), vehicle: carboxymethylcellulose (CMC) 93 % of control | dose: 50.0 mg/kg/injection, schedule: Q01DX001 (ip), vehicle: carboxymethylcellulose (CMC) 93 % of control | dose: 75.0 mg/kg/injection, schedule: Q01DX001 (ip), vehicle: carboxymethylcellulose (CMC) 110 % of control | dose: 100.0 mg/kg/injection, schedule: Q01DX001 (ip), vehicle: carboxymethylcellulose (CMC) 109 % of control | dose: 200.0 mg/kg/injection, schedule: Q01DX001 (ip), vehicle: carboxymethylcellulose (CMC) 115 % of control | dose: 400.0 mg/kg/injection, schedule: Q01DX001 (ip), vehicle: carboxymethylcellulose (CMC) 107 % of control

CNC(=S)N/N=C(/C)CCc1c(C)nn(C(=S)NC)c1C
inactive: dose: 5.0 mg/kg/injection, schedule: Q01DX001 (ip), vehicle: carboxymethylcellulose (CMC) 94 % of control | dose: 10.0 mg/kg/injection, schedule: Q01DX001 (ip), vehicle: carboxymethylcellulose (CMC) 91 % of control | dose: 12.5 mg/kg/injection, schedule: Q01DX009 (ip), vehicle: Klucel (hydroxypropylcellulose) (HPC) 103 % of control | dose: 20.0 mg/kg/injection, schedule: Q01DX001 (ip), vehicle: carboxymethylcellulose (CMC) 89 % of control | dose: 25.0 mg/kg/injection, schedule: Q01DX009 (ip), vehicle: Klucel (hydroxypropylcellulose) (HPC) 100 % of control | dose: 25.0 mg/kg/injection, schedule: Q04DX003 (ip), vehicle: Klucel (hydroxypropylcellulose) (HPC) 106 % of control | dose: 40.0 mg/kg/injection, schedule: Q01DX001 (ip), vehicle: carboxymethylcellulose (CMC) 89 % of control | dose: 50.0 mg/kg/injection, schedule: Q01DX009 (ip), vehicle: Klucel (hydroxypropylcellulose) (HPC) 92 % of control | dose: 50.0 mg/kg/injection, schedule: Q04DX003 (ip), vehicle: Klucel (hydroxypropylcellulose) (HPC) 100 % of control | dose: 80.0 mg/kg/injection, schedule: Q01DX001 (ip), vehicle: carboxymethylcellulose (CMC) 96 % of control | dose: 100.0 mg/kg/injection, schedule: Q04DX003 (ip), vehicle: Klucel (hydroxypropylcellulose) (HPC) 92 % of control

CCCC(=O)Oc1ccc2c(C)cc(=O)oc2c1
inactive: [7] 102 % of control | dose: 100.0 mg/kg/injection, schedule: Q04DX003 (ip), vehicle: saline with Tween-80 94 % of control | [8] 104 % of control | dose: 200.0 mg/kg/injection, schedule: Q04DX003 (ip), vehicle: saline with Tween-80 100 % of control | [9] 106 % of control | dose: 400.0 mg/kg/injection, schedule: Q04DX003 (ip), vehicle: saline with Tween-80 100 % of control

Cc1ccc(CC(C)(O)CC(C)(O)Cc2ccc(C)cc2)cc1 (stereo not drawn)
inactive: [10] 100 % of control | dose: 200.0 mg/kg/injection, schedule: Q04DX003 (ip), vehicle: saline 93 % of control | dose: 400.0 mg/kg/injection, schedule: Q04DX003 (ip), vehicle: saline 93 % of control

NC1CCS(=O)(=O)CC1
inactive: dose: 100.0 mg/kg/injection, schedule: Q01DX001 (ip), vehicle: water 93 % of control | dose: 200.0 mg/kg/injection, schedule: Q01DX001 (ip), vehicle: water 101 % of control | dose: 400.0 mg/kg/injection, schedule: Q01DX001 (ip), vehicle: water 104 % of control

CCCCCCCCCCC1CCC(CCCCCCCCCC)CC1 (stereo not drawn)
inactive: dose: 100.0 mg/kg/injection, schedule: Q01DX001 (ip), vehicle: other 106 % of control | dose: 200.0 mg/kg/injection, schedule: Q01DX001 (ip), vehicle: other 107 % of control | dose: 400.0 mg/kg/injection, schedule: Q01DX001 (ip), vehicle: other 91 % of control

COc1ccc(-n2cccc2/C=N\O)cc1OC
inactive: [2] 89 % of control | [4] 100 % of control | [6] 96 % of control

C=C1CC(=O)N(c2ccc(Cl)cc2)C1=O
inactive: dose: 25.0 mg/kg/injection, schedule: Q01DX001 (ip), vehicle: saline with Tween-80 93 % of control | dose: 50.0 mg/kg/injection, schedule: Q01DX001 (ip), vehicle: saline with Tween-80 98 % of control | dose: 100.0 mg/kg/injection, schedule: Q01DX001 (ip), vehicle: saline with Tween-80 97 % of control

NC(=S)N/N=C/c1cc(Br)c(O)c(Br)c1
inactive: [1] 104 % of control | [3] 91 % of control | [5] 98 % of control

O=C(O)/C=C\c1c[nH]c2nccnc12
inactive: [11] 101 % of control | dose: 25.0 mg/kg/injection, schedule: Q04DX003 (ip), vehicle: saline 117 % of control | [12] 88 % of control | dose: 50.0 mg/kg/injection, schedule: Q04DX003 (ip), vehicle: saline 115 % of control | [10] 103 % of control and 106 % of control

Cc1cccc(Cl)c1NC(=O)CC#N
inactive: [7] 97 % of control | dose: 100.0 mg/kg/injection, schedule: Q04DX002 (ip), vehicle: saline with Tween-80 97 % of control | [8] 95 % of control | dose: 200.0 mg/kg/injection, schedule: Q04DX002 (ip), vehicle: saline with Tween-80 97 % of control | [9] 100 % of control | dose: 400.0 mg/kg/injection, schedule: Q04DX002 (ip), vehicle: saline with Tween-80 97 % of control

CC(OC1OC(CO)C(OC2OC(CO)C(O)C(O)C2O)C(O)C1O)C1CC(O)C2C3CCC4=CC(=O)CCC4(C)C3CCC12C (stereo not drawn)
inactive: dose: 25.0 mg/kg/injection, schedule: Q04DX002 (ip), vehicle: saline 104 % of control | dose: 50.0 mg/kg/injection, schedule: Q04DX002 (ip), vehicle: saline 107 % of control | dose: 100.0 mg/kg/injection, schedule: Q04DX002 (ip), vehicle: saline 96 % of control

CN(CCC#N)c1ccc(/C=C(\C#N)c2ccc(Cl)cc2)cc1
inactive: [1] 102 % of control | [3] 103 % of control | [5] 105 % of control

N#CCCCC[P+](c1ccccc1)(c1ccccc1)c1ccccc1
inactive: [11] 107 % of control | [12] 93 % of control

— PubChem BioAssay AID248 (DTP/NCI, 2004)
